Reference: patent publication US12319664B2, “Herbicidally active 3-phenylisoxazoline-5-carboxamides of cyclopentenylcarboxylic acid derivatives” (Bayer Aktiengesellschaft, priority 2018, dated 2025)

How the values were obtained:
ALOMY = assay: Post-emergence herbicidal action against ALOMY; format: in vivo, Alopecurus myosuroides; conditions: application rate 80 g/ha, rated visually after about 3 weeks
Procedure: (§1) [table] 2. Post-emergence herbicidal action against harmful plants and crop plant compatibility Seeds of monocotyledonous and dicotyledonous weeds and crop plants are placed in sandy loam in plastic or wood-fibre pots, covered with soil and cultivated in a greenhouse under controlled growth conditions. 2 to 3 weeks after sowing, the test plants are treated at the one-leaf stage. The compounds of the invention, formulated in the form of wettable powders (WP) or as emulsion concentrates (EC), are then sprayed onto the green parts of the plants as aqueous suspension or emulsion with addition of 0.5% additive at a water application rate of 600 l/ha (converted). After the test plants have been kept in the greenhouse under optimum growth conditions for about 3 weeks, the activity of the preparations is rated visually in comparison to untreated controls. For example, 100% activity=the plants have died, 0% activity=like control plants.

AMARE = assay: Post-emergence herbicidal action against AMARE; format: in vivo, Amaranthus retroflexus; conditions: application rate 80 g/ha, rated visually about 3 weeks after treatment
Procedure: as §1

VERPE = assay: Post-emergence herbicidal action against VERPE; format: in vivo, Veronica persica; conditions: application rate 80 g/ha
Procedure: as §1

LOLRI = assay: Post-emergence herbicidal action against LOLRI; format: in vivo, Lolium rigidum; conditions: application rate 80 g/ha, rated visually after about 3 weeks
Procedure: as §1

AVEFA = assay: Post-emergence herbicidal action against AVEFA; format: in vivo, Avena fatua; conditions: application rate 80 g/ha, rated visually after about 3 weeks
Procedure: as §1

HORMU = assay: Post-emergence herbicidal action against HORMU; format: in vivo, Hordeum murinum; conditions: application rate 80 g/ha
Procedure: as §1

STEME = assay: Post-emergence herbicidal action against STEME; format: in vivo, Stellaria media; conditions: application rate 80 g/ha, rated visually about 3 weeks after treatment
Procedure: as §1

POLCO = assay: Post-emergence herbicidal action against POLCO; format: in vivo, Polygonum convolvulus; conditions: application rate 80 g/ha, rated visually about 3 weeks after treatment
Procedure: as §1

SETVI = assay: Post-emergence herbicidal action against SETVI; format: in vivo, Setaria viridis; conditions: application rate 80 g/ha, rated visually after about 3 weeks
Procedure: as §1

ECHCG = assay: Post-emergence herbicidal action against ECHCG; format: in vivo, Echinochloa crus-galli; conditions: application rate 80 g/ha, rated visually after about 3 weeks
Procedure: as §1

ABUTH = assay: Post-emergence herbicidal action against ABUTH; format: in vivo, Abutilon theophrasti; conditions: application rate 80 g/ha, rated visually about 3 weeks after treatment
Procedure: as §1

| Compound | Herbicidal action against [%] ALOMY (ALOMY) [%] | Herbicidal action against [%] AMARE (AMARE) [%] | Herbicidal action against [%] VERPE (VERPE) [%] | Herbicidal action against [%] LOLRI (LOLRI) [%] | Herbicidal action against [%] AVEFA (AVEFA) [%] | Herbicidal action against [%] HORMU (HORMU) [%] | Herbicidal action against [%] STEME (STEME) [%] | Herbicidal action against [%] POLCO (POLCO) [%] | Herbicidal action against [%] SETVI (SETVI) [%] | Herbicidal action against [%] ECHCG (ECHCG) [%] | Herbicidal action against [%] ABUTH (ABUTH) [%] |
| --- | --- | --- | --- | --- | --- | --- | --- | --- | --- | --- | --- |
| COC(=O)CS(=O)(=O)NC(=O)C1C=CC(NC(=O)C2(C(F)(F)F)CC(c3cc(F)cc(F)c3)=NO2)C1 (stereo not shown) [II-39] | 80 | 80 | 80 | 80 | 90 | 80 | – | – | – | – | – |
| C=CC1(C(=O)NC2C=CC(C(=O)NC(C)(C)C(=O)OC)C2)CC(c2cc(F)cc(F)c2)=NO1 (stereo not shown) [II-22] | 80 | – | 80 | 90 | 90 | 90 | 80 | – | – | – | – |
| CC(C)(C)OC(=O)C1C=CC(NC(=O)C2(C(F)(F)F)CC(c3cc(F)cc(F)c3)=NO2)C1 (mixture of isomers) [Example I-066] | 90 | 90 | 80 | 90 | 90 | 90 | – | 80 | 90 | 80 | – |
| C=CC1(C(=O)N[C@H]2C=C[C@H](C(=O)N3CCCCO3)C2)CC(c2cc(F)cc(F)c2)=NO1 (stereo partly shown) [II-29] | – | 80 | 80 | 90 | 80 | 80 | – | 80 | 80 | 90 | – |
| Cc1cc(C2=NOC(C(=O)NC3C=CC(C(=O)OCC(F)(F)F)C3)(C(F)(F)F)C2)cc(C(F)(F)F)c1 (mixture of isomers) [Example I-050] | 90 | 80 | – | – | 90 | 90 | – | – | – | – | 80 |
| COC(=O)C(C)(C)NC(=O)C1C=CC(NC(=O)C2(C)CC(c3cc(F)cc(F)c3)=NO2)C1 (mixture of isomers) [II-09] | – | – | – | 80 | 90 | – | – | 90 | – | – | – |
| C=CC1(C(=O)NC2C=CC(C(=O)NC(C#N)C(C)C)C2)CC(c2cc(F)cc(F)c2)=NO1 (mixture of isomers) [II-17] | 80 | – | – | – | – | – | – | – | – | – | – |
| C=CC1(C(=O)NC2C=CC(C(=O)NC(C)(C)C#N)C2)CC(c2cc(F)cc(F)c2)=NO1 (mixture of isomers) [II-20] | – | – | – | – | 100 | – | 80 | – | – | – | – |
| Cc1cc(C)cc(C2=NOC(C(=O)NC3C=CC(C(=O)OCCCl)C3)(C(F)(F)F)C2)c1 (mixture of isomers) [Example I-056] | 100 | 80 | 80 | 90 | 90 | 80 | 90 | 80 | 80 | 80 | – |
| C=CC1(C(=O)NC2C=CC(C(=O)N3CCCO3)C2)CC(c2cc(F)cc(F)c2)=NO1 (stereo not shown) [II-27] | 90 | 80 | 90 | 90 | 90 | 80 | 90 | 90 | 80 | 90 | – |
| C=CC1(C(=O)NC2C=CC(C(=O)OC(C)C)C2)CC(c2cc(F)cc(F)c2)=NO1 (mixture of isomers) [Example I-034] | 90 | – | 90 | 100 | 90 | 90 | 90 | 80 | 80 | 80 | 80 |
| C=CC1(C(=O)NC2C=CC(C(=O)N3CCCCO3)C2)CC(c2cc(F)cc(F)c2)=NO1 (mixture of isomers) [II-30] | 100 | 80 | 80 | 90 | 100 | – | – | 90 | 80 | 90 | 80 |
| O=C(OCCCl)[C@@H]1C=C[C@H](NC(=O)C2(C(F)(F)F)CC(c3ccccc3)=NO2)C1 (stereo partly shown) [Example I-025] | 90 | 90 | – | 90 | 90 | 80 | 80 | 100 | 90 | 80 | – |
| CCOC(=O)C1C=CC(NC(=O)C2(C(F)(F)F)CC(c3cc(OC)cc(OC)c3)=NO2)C1 (mixture of isomers) [Example I-043] | 90 | 80 | 80 | 90 | 90 | 80 | 80 | – | 80 | 80 | 80 |
| C=CC1(C(=O)NC2C=CC(C(=O)NC(C(=O)OC)C(C)C)C2)CC(c2cc(F)cc(F)c2)=NO1 (mixture of isomers) [II-25] | 80 | 80 | – | 90 | 90 | 100 | – | 80 | – | 80 | – |
| C=CC1(C(=O)NC2C=CC(C(=O)NC(C)(C)C(=O)OC)C2)CC(c2cc(F)cc(F)c2)=NO1 (stereo not shown) [II-21] | – | – | – | – | – | – | – | 80 | – | – | – |
| COCCOC(=O)C1C=CC(NC(=O)C2(C)CC(c3cccc(C#N)c3)=NO2)C1 (mixture of isomers) [Example I-081] | – | 80 | 80 | 100 | 100 | 100 | 90 | 90 | 80 | – | 80 |
